Test results reported in patent publication US20240239781A1, “1H-PYRAZOLE DERIVATIVES AS SIGMA LIGANDS” (ACONDICIONAMIENTO TARRASENSE, priority 2021, published 2024).

Columns and labels:
[1] = target: T1, human σ2/TMEM97 receptor (Homo sapiens, UniProt Q5BJF2); experiment: Binding assay to human σ2/TMEM97 receptor ([3H]-DTG, transfected HEK-293 membranes); settings: class scale, read-out: Binding σ-2 Ki
T1 construct: expressed in transfected cells; host or cells: HEK-293
How it was run: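 Competition against 10 nM [3H]-DTG (Tris-HCl 50 mM, pH 8.0, 25 °C, 120 min) using 15 μg transfected HEK-293 membrane protein, with 10 μM haloperidol defining NSB. Bound radioactivity counted after filtration; results as single-point % inhibition (1 or 10 μM) or five-point Ki.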

[2] = target: T2, human σ1 receptor (Homo sapiens, UniProt Q99720); experiment: Human σ1 receptor radioligand assay ([3H](+)-pentazocine, transfected HEK-293 membranes); settings: class scale, read-out: Binding σ-1 Ki
T2 construct: expressed in transfected cells; host or cells: HEK-293
How it was run: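 Compounds were tested at a single 1 or 10 μM concentration (% inhibition) or at five concentrations to give Ki. They competed with 5 nM [3H](+)-pentazocine for transfected HEK-293 membranes (7 μg) in 50 mM Tris-HCl pH 8 at 37° C for 120 minutes. Nonspecific binding was set with 10 μM haloperidol, and a filtration scintillation read-out was used.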

[3] = test system: mechanical hypersensitivity; settings: SNI mice model of neuropathic pain; cited from earlier work
[4] = target: sigma-2 (σ2) site (Homo sapiens, UniProt Q5BJF2); settings: background statement; cited from earlier work
Sequence of sigma-2 (σ2) site (Q5BJF2 whole entry): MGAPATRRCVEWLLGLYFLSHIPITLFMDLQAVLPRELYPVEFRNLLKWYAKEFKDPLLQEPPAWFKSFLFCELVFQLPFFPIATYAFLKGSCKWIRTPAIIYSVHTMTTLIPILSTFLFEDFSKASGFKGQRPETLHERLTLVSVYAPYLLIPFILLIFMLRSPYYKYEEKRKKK

T2 sequence (Q99720 whole entry): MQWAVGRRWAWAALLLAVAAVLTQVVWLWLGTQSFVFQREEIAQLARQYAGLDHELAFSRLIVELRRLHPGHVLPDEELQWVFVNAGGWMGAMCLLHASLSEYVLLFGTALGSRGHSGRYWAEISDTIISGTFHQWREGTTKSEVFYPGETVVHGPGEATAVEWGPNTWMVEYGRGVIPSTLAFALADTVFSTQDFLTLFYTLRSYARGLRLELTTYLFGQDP
T1 sequence (Q5BJF2 whole entry): as the sequence (Q5BJF2 whole entry) above

Row | Compound | Ki [1] [nM] | Ki [2] [nM] | effect on mechanical hypersensitivity [3] | affinity for the sigma-2 (σ2) site [4]
1 | CCn1nc(-c2cc(C)on2)c(CC(=O)NC2CCC3(CC2)CCN(CCC(C)(C)C)CC3)c1Cl [Example 216, 2-(5-Chloro-1-ethyl-3-(5-methylisoxazol-3-yl)-1H-pyrazol-4-yl)-N-(3-(3,3-dimethylbutyl)-3-azaspiro[5.5]undecan-9-yl)acetamide] | < 100 | < 100 |  | 
2 | CCn1nc(-c2cc(C)on2)c(CC(=O)N2CCCC3(CCN(CCC(C)(C)C)CC3)C2)c1Cl [Example 217, 2-(5-Chloro-1-ethyl-3-(5-methylisoxazol-3-yl)-1H-pyrazol-4-yl)-1-(9-(3,3-dimethylbutyl)-2,9-diazaspiro[5.5]undecan-2-yl)ethan-1-one] | < 100 | 100 to 500 |  | 
3 | CCn1nc(-c2ccon2)c(CC(=O)N2CCCC3(CCN(CCC(C)(C)C)CC3)C2)c1Cl [Example 218, 2-(5-Chloro-1-ethyl-3-(isoxazol-3-yl)-1H-pyrazol-4-yl)-1-(9-(3,3-dimethylbutyl)-2,9-diazaspiro[5.5]undecan-2-yl)ethan-1-one] | < 100 | > 1000 |  | 
4 | CCn1nc(-c2ccon2)c(CC(=O)NC2CCC3(CC2)CCN(CCC(C)(C)C)CC3)c1Cl [Example 219, 2-(5-Chloro-1-ethyl-3-(isoxazol-3-yl)-1H-pyrazol-4-yl)-N-(3-(3,3-dimethylbutyl)-3-azaspiro[5.5]undecan-9-yl)acetamide] | < 100 | 100 to 500 |  | 
5 | Cc1cc(-c2nn(C)c(Cl)c2CC(=O)NC2CCN(CCC(C)(C)C)CC2)no1 [Example 220, 2-(5-Chloro-1-methyl-3-(5-methylisoxazol-3-yl)-1H-pyrazol-4-yl)-N-(1-(3,3-dimethylbutyl)piperidin-4-yl)acetamide] | < 100 | 100 to 500 |  | 
6 | CCn1nc(-c2ccon2)c(CC(=O)NC2CCN(CCC(C)(C)C)CC2)c1Cl [Example 221, 2-(5-Chloro-1-ethyl-3-(isoxazol-3-yl)-1H-pyrazol-4-yl)-N-(1-(3,3-dimethylbutyl)piperidin-4-yl)acetamide] | < 100 | < 100 |  | 
7 | Cn1nc(-c2cccc(C(F)(F)F)n2)c(CC(=O)NC2CCN(CCC(C)(C)C)CC2)c1Cl [Example 222, 2-(5-Chloro-1-methyl-3-(6-(trifluoromethyl)pyridin-2-yl)-1H-pyrazol-4-yl)-N-(1-(3,3-dimethylbutyl)piperidin-4-yl)acetamide] | < 100 | < 100 |  | 
8 | CCn1nc(-c2cccc(C(F)(F)F)n2)c(CC(=O)NC2CCN(CCC(C)(C)C)CC2)c1Cl [Example 223, 2-(5-chloro-1-ethyl-3-(6-(trifluoromethyl)pyridin-2-yl)-1H-pyrazol-4-yl)-N-(1-(3,3-dimethylbutyl)piperidin-4-yl)acetamide] | < 100 | < 100 |  | 
9 | CCn1nc(-c2ccon2)c(CC(=O)NC2CC3(CCN(CCC(C)(C)C)CC3)C2)c1Cl [Example 224, 2-(5-chloro-1-ethyl-3-(isoxazol-3-yl)-1H-pyrazol-4-yl)-N-(7-(3,3-dimethylbutyl)-7-azaspiro[3.5]nonan-2-yl)acetamide] | < 100 | 100 to 500 |  | 
10 | CCn1nc(-c2cc(C)on2)c(CN2CC3(CCN(CCC(C)(C)C)CC3)CC2=O)c1Cl [Example 225, 2-((5-Chloro-1-ethyl-3-(5-methylisoxazol-3-yl)-1H-pyrazol-4-yl)methyl)-8-(3,3-dimethylbutyl)-2,8-diazaspiro[4.5]decan-3-one] | < 100 | 100 to 500 |  | 
11 | CCCn1nc(-c2cc(C)on2)c(CN2CC3(CCN(CCC(C)(C)C)CC3)CC2=O)c1Cl [Example 226, 2-((5-Chloro-3-(5-methylisoxazol-3-yl)-1-propyl-1H-pyrazol-4-yl)methyl)-8-(3,3-dimethylbutyl)-2,8-diazaspiro[4.5]decan-3-one] | < 100 | 100 to 500 |  | 
12 | Cn1nc(-c2cccc(C(F)(F)F)n2)c(CN2CC3(CCN(CCC(C)(C)C)CC3)CC2=O)c1Cl [Example 227, 2-((5-Chloro-1-methyl-3-(6-(trifluoromethyl)pyridin-2-yl)-1H-pyrazol-4-yl)methyl)-8-(3,3-dimethylbutyl)-2,8-diazaspiro[4.5]decan-3-one] | < 100 | < 100 |  | 
13 | Cc1cccc(-c2nn(C)c(Cl)c2CN2CC3(CCN(CCC(C)(C)C)CC3)CC2=O)n1 [Example 228, 2-((5-Chloro-1-methyl-3-(6-methylpyridin-2-yl)-1H-pyrazol-4-yl)methyl)-8-(3,3-dimethylbutyl)-2,8-diazaspiro[4.5]decan-3-one] | 100 to 500 | 100 to 500 |  | 
14 | CCn1nc(-c2cccc(C(F)(F)F)n2)c(CN2CC3(CCN(CCC(C)(C)C)CC3)CC2=O)c1Cl [Example 229, 2-((5-Chloro-1-ethyl-3-(6-(trifluoromethyl)pyridin-2-yl)-1H-pyrazol-4-yl)methyl)-8-(3,3-dimethylbutyl)-2,8-diazaspiro[4.5]decan-3-one] | < 100 | < 100 |  | 
15 | OCCCN1CCCC2CC1c1cc(-c3ccc(C(F)(F)F)cc3)ccc12 (stereo not drawn) [UKH-1114] |  |  | relieved mechanical hypersensitivity | 
16 | (+)-SKF-10047 |  |  |  | micromolar affinity
